Measured values reported in ChEMBL document CHEMBL2074206, “Uraemic toxins induce proximal tubular injury via organic anion transporter 1-mediated uptake” (Br J Pharmacol, 2002).

Biological target: T1, Solute carrier family 22 member 6 (Homo sapiens, UniProt Q4U2R8)
T1 sequence (Q4U2R8 whole entry): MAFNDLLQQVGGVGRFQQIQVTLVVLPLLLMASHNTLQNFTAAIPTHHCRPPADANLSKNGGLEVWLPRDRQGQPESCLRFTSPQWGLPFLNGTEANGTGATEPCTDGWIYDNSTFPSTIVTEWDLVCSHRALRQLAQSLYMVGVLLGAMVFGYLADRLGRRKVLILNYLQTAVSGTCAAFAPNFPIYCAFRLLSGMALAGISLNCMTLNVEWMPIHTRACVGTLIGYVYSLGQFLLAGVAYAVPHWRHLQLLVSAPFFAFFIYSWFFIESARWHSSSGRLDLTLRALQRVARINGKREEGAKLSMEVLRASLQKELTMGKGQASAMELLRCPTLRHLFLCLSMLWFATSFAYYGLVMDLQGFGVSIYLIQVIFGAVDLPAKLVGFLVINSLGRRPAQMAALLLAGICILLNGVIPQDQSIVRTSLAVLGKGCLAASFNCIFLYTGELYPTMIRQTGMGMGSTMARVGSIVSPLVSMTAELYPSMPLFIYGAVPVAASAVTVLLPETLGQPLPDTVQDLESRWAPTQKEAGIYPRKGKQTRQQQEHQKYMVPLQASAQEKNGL
Experiment: TP_TRANSPORTER: inhibition of PAH uptake in OAT1-expressing OK cells
Format: functional, cell-based

Question: For `O=C(O)CNC(=O)c1ccc(O)cc1`, which IC50 is on record?
Answer: 25 µM
